Experimental data taken from the NIST ThermoML archive (doi:10.1016/j.jct.2011.01.014).

Experiment: xn = mol fraction of the nth substance listed
Settings: 101 kPa, Liquid; for speed of sound: sound velocity cell; for mass density: Vibrating tube method

CC(=O)[O-].[NH3+]CCO [2-hydroxyethylammonium acetate] + O
Settings | mass density [kg/m3] | speed of sound [m/s]
305.65 K, x1 = 0.051 | – | 1689.8
305.65 K, x1 = 0.1019 | – | 1763.6
305.65 K, x1 = 0.1963 | – | 1817.3
305.65 K, x1 = 0.2894 | – | 1823.5
305.65 K, x1 = 0.3959 | – | 1811.5
305.65 K, x1 = 0.5016 | – | 1799.8
305.65 K, x1 = 0.5821 | – | 1797
305.65 K, x1 = 0.6837 | – | 1788.2
305.65 K, x1 = 0.7763 | – | 1786.6
305.65 K, x1 = 0.8761 | – | 1776.6
305.65 K, x1 = 0.9137 | – | 1778.1
305.65 K, x1 = 1 | – | 1773.4
308.15 K, x1 = 0.051 | 1047.04 | 1690.8
308.15 K, x1 = 0.1019 | 1076 | 1762.3
308.15 K, x1 = 0.1963 | 1106.1 | 1814
308.15 K, x1 = 0.2894 | 1120.43 | 1819.3
308.15 K, x1 = 0.3959 | 1129.69 | 1806.9
308.15 K, x1 = 0.5016 | 1134.77 | 1795
308.15 K, x1 = 0.5821 | 1137.3 | 1792.1
308.15 K, x1 = 0.6837 | 1139.14 | 1783.2
308.15 K, x1 = 0.7763 | 1140.95 | 1781.4
308.15 K, x1 = 0.8761 | 1142.23 | 1771.3
308.15 K, x1 = 0.9137 | 1142.59 | 1772.8
308.15 K, x1 = 1 | 1143.39 | 1767.9
310.65 K, x1 = 0.051 | 1045.86 | 1691.5
310.65 K, x1 = 0.1019 | 1074.78 | 1760.8
310.65 K, x1 = 0.1963 | 1104.76 | 1810.6
310.65 K, x1 = 0.2894 | 1119.06 | 1815.2
310.65 K, x1 = 0.3959 | 1128.3 | 1802.4
310.65 K, x1 = 0.5016 | 1133.38 | 1790.2
310.65 K, x1 = 0.5821 | 1135.91 | 1787.2
310.65 K, x1 = 0.6837 | 1137.76 | 1778.2
310.65 K, x1 = 0.7763 | 1139.58 | 1776.3
310.65 K, x1 = 0.8761 | 1140.87 | 1766
310.65 K, x1 = 0.9137 | 1141.2 | 1767.5
310.65 K, x1 = 1 | 1141.96 | 1762.5
313.15 K, x1 = 0.051 | 1044.65 | 1692
313.15 K, x1 = 0.1019 | 1073.54 | 1759.2
313.15 K, x1 = 0.1963 | 1103.42 | 1807.1
313.15 K, x1 = 0.2894 | 1117.69 | 1811.1
313.15 K, x1 = 0.3959 | 1126.9 | 1797.7
313.15 K, x1 = 0.5016 | 1131.98 | 1785.3
313.15 K, x1 = 0.5821 | 1134.53 | 1782.3
313.15 K, x1 = 0.6837 | 1136.37 | 1773.2
313.15 K, x1 = 0.7763 | 1138.21 | 1771.3
313.15 K, x1 = 0.8761 | 1139.5 | 1760.8
313.15 K, x1 = 0.9137 | 1139.84 | 1762.3
313.15 K, x1 = 1 | 1140.55 | 1757.2
315.15 K, x1 = 0.051 | 1043.45 | –
315.15 K, x1 = 0.1019 | 1072.29 | –
315.15 K, x1 = 0.1963 | 1102.07 | –
315.15 K, x1 = 0.2894 | 1116.31 | –
315.15 K, x1 = 0.3959 | 1125.5 | –
315.15 K, x1 = 0.5016 | 1130.58 | –
315.15 K, x1 = 0.5821 | 1133.13 | –
315.15 K, x1 = 0.6837 | 1134.98 | –
315.15 K, x1 = 0.7763 | 1136.83 | –
315.15 K, x1 = 0.8761 | 1138.14 | –
315.15 K, x1 = 0.9137 | 1138.48 | –
315.15 K, x1 = 1 | 1139.18 | –
315.65 K, x1 = 0.051 | – | 1692.3
315.65 K, x1 = 0.1019 | – | 1757.5
315.65 K, x1 = 0.1963 | – | 1803.5
315.65 K, x1 = 0.2894 | – | 1806.9
315.65 K, x1 = 0.3959 | – | 1793.1
315.65 K, x1 = 0.5016 | – | 1780.5
315.65 K, x1 = 0.5821 | – | 1777.4
315.65 K, x1 = 0.6837 | – | 1768.2
315.65 K, x1 = 0.7763 | – | 1766.2
315.65 K, x1 = 0.8761 | – | 1755.7
315.65 K, x1 = 0.9137 | – | 1757.1
315.65 K, x1 = 1 | – | 1751.9
318.15 K, x1 = 0.051 | 1042.25 | 1692.3
318.15 K, x1 = 0.1019 | 1071.02 | 1755.5
318.15 K, x1 = 0.1963 | 1100.71 | 1799.9
318.15 K, x1 = 0.2894 | 1114.92 | 1802.6
318.15 K, x1 = 0.3959 | 1124.1 | 1788.4
318.15 K, x1 = 0.5016 | 1129.18 | 1775.6
318.15 K, x1 = 0.5821 | 1131.74 | 1772.5
318.15 K, x1 = 0.6837 | 1133.59 | 1763.2
318.15 K, x1 = 0.7763 | 1135.45 | 1761.2
318.15 K, x1 = 0.8761 | 1136.76 | 1750.5
318.15 K, x1 = 0.9137 | 1137.11 | 1751.9
318.15 K, x1 = 1 | 1137.82 | 1746.5
320.65 K, x1 = 0.051 | 1041.08 | 1692.2
320.65 K, x1 = 0.1019 | 1069.74 | 1753.5
320.65 K, x1 = 0.1963 | 1099.34 | 1796.1
320.65 K, x1 = 0.2894 | 1113.53 | 1798.2
320.65 K, x1 = 0.3959 | 1122.69 | 1783.6
320.65 K, x1 = 0.5016 | 1127.77 | 1770.7
320.65 K, x1 = 0.5821 | 1130.35 | 1767.6
320.65 K, x1 = 0.6837 | 1132.19 | 1758.2
320.65 K, x1 = 0.7763 | 1134.06 | 1756.1
320.65 K, x1 = 0.8761 | 1135.38 | 1745.3
320.65 K, x1 = 0.9137 | 1135.73 | 1746.7
320.65 K, x1 = 1 | 1136.45 | 1741.3
323.15 K, x1 = 0.051 | 1040.15 | 1691.8
323.15 K, x1 = 0.1019 | 1068.47 | 1751.2
323.15 K, x1 = 0.1963 | 1097.97 | 1792.3
323.15 K, x1 = 0.2894 | 1112.14 | 1793.9
323.15 K, x1 = 0.3959 | 1121.29 | 1778.9
323.15 K, x1 = 0.5016 | 1126.36 | 1765.9
323.15 K, x1 = 0.5821 | 1128.95 | 1762.8
323.15 K, x1 = 0.6837 | 1130.79 | 1753.3
323.15 K, x1 = 0.7763 | 1132.67 | 1751
323.15 K, x1 = 0.8761 | 1134 | 1740.2
323.15 K, x1 = 0.9137 | 1134.36 | 1741.5
323.15 K, x1 = 1 | 1135.08 | 1736
